Where “and” joins values, the source holds several entries; their conditions need not be identical. Equal entries are not always repeated. Positions of bridges follow the written chain, without caps; N, C: chain ends. Non-standard residues stand in square brackets, D forms with d. Residues, ends and D or L forms follow the SMILES beside them. *: point of attachment. Octanoyl = CCCCCCCC(=O)*; Dab = NCC[C@H](N)C(=O)O; Dap = NC[C@H](N)C(=O)O
Legend:
K. pneumoniae = assay: Checkerboard assay (antibiotic potentiation); assay type: cell-based, Klebsiella pneumoniae; conditions: compound 1 alone
E. coli = assay: Checkerboard assay (antibiotic potentiation); assay type: cell-based, Escherichia coli; conditions: compound 1 alone
E. cloacae = assay: Checkerboard assay (antibiotic potentiation); assay type: cell-based, Enterobacter cloacae; conditions: E. cloacae 121887 (colistin-resistant); compound 1 alone
A. baumannii AB027 = assay: Time-kill kinetics assay; conditions: monotherapy at 8 µg/mL, LB, 37°C, up to 24 h
Method: Bactericidal and bacteriostatic activity correspond to a ≥ 3 log10 and a < 3 log10 decrease in bacterial load after 24 h relative to the starting inoculum, respectively ([39]).
The time- and concentration-dependent killing of the antibiotic/compound combinations was assessed using the time-kill kinetics assay by following a previously described protocol ([27][–][29]). Bacterial culture grown overnight was diluted in phosphate-buffered saline (PBS) to 0.5 McFarland turbidity and was further diluted 1:50 in LB. Bacterial cultures treated with varying concentrations of antibiotic alone, compound alone, or the combination of antibiotic and compound were incubated in a shaking incubator at 250 rpm and at 37°C. At designated time points, 100 µL aliquots were taken from the culture tubes, serially diluted in PBS, and plated on LB agar plates. The bacterial colonies were then counted after incubation of the plates for 18 h at 37°C.

A. baumannii = assay: Checkerboard assay (antibiotic potentiation); assay type: cell-based, Acinetobacter baumannii; conditions: compound 1 alone
P. aeruginosa 259-96916 = assay: Time-kill kinetics assay; conditions: monotherapy at 8 µg/mL, LB, 37°C, up to 24 h
[1] = test system: Methicillin-resistant S. aureus ATCC 22592; assay: Checkerboard assay (rifampicin potentiation); assay type: cell-based; conditions: MRSA ATCC 22592; compound 1 alone
Method: (§1) The interaction between the compounds and the antibiotics was evaluated using the fractional inhibitory concentration (FIC) index. FIC indices of ≤0.5 is synergistic, 0.5 < × ≤ 4 is additive, whereas >4 is antagonistic ([34]). […] .
(§2) The bacterial isolates were acquired from ATCC or the Canadian Ward Surveillance (CANWARD) study ([56]). CANWARD isolates were collected from infected patients admitted to participating medical centers across Canada.
(§3) The antibiotic and compounds were serially diluted 2-fold in CAMHB along the x- and y-axis, respectively, on a 96-well plate that was subsequently incubated with equal volumes of bacterial inoculum overnight at 37°C. Wells containing only media were used as negative controls, and wells containing only bacteria were used as positive controls. Synergy was measured by the FIC index, which is the summation of the individual FICs of the antibiotic and the compound. The FIC is calculated by dividing the MIC of one agent in the presence of another by the MIC of the agent alone. Turbidity was confirmed with a Molecular Devices (United States) EMax Plus microplate reader at a wavelength of 590 nm. The FBS studies were conducted by following a previously published protocol ([29], [50]). The FBS was inactivated by heating at 56°C for 30 min with constant swirling.

E. faecalis ATCC 29212 = assay: Checkerboard assay (rifampicin potentiation); assay type: cell-based; conditions: compound 1 alone
Method: as §1, §2, §3

E. faecium ATCC 27270 = assay: Checkerboard assay (rifampicin potentiation); assay type: cell-based; conditions: compound 1 alone
Method: as §1, §2, §3

P. aeruginosa = assay: Checkerboard assay (antibiotic potentiation); assay type: cell-based, Pseudomonas aeruginosa; conditions: for MICcompound 1: compound 1 alone

MICcompound 1 (K. pneumoniae; K. pneumoniae 113250 (colistin-resistant)): >128 µg/mL | MICcompound 1 (K. pneumoniae; K. pneumoniae 116381): >128 µg/mL | MICcompound 1 (E. coli; E. coli 94393 (colistin-resistant)): >128 µg/mL | MICcompound 1 (E. coli; E. coli 94474 (colistin-resistant)): >128 µg/mL | MICcompound 1 (E. cloacae): >128 µg/mL | MICcompound 1 (A. baumannii; A. baumannii 92247 (colistin-resistant)): >128 µg/mL | MICcompound 1 (A. baumannii; A. baumannii 110193): 32 µg/mL and 16 µg/mL | MICcompound 1 (A. baumannii; A. baumannii AB027): >128 µg/mL | MICcompound 1 (A. baumannii; A. baumannii ATCC 17978, 0% FBS): 16 µg/mL | MICcompound 1 (A. baumannii; A. baumannii ATCC 17978, 10% FBS (heat-inactivated)): >128 µg/mL | MICcompound 1 (A. baumannii; A. baumannii ATCC 17978, 25% FBS): >128 µg/mL | MICcompound 1 (A. baumannii; A. baumannii ATCC 17978, 50% FBS): >128 µg/mL | MICcompound 1 (A. baumannii; A. baumannii ATCC 17978, [Mg2+] 25 mM): >128 µg/mL | MICcompound 1 (A. baumannii; A. baumannii ATCC 17978, [Mg2+] 0.4–0.5 mM (CAMHB)): 16 µg/mL | MICcompound 1 [1]: >128 µg/mL | MICcompound 1 (E. faecalis ATCC 29212): >128 µg/mL | MICcompound 1 (E. faecium ATCC 27270): >128 µg/mL | MICcompound 1 (P. aeruginosa; P. aeruginosa 259-96916): >128 µg/mL | MICcompound 1 (P. aeruginosa; P. aeruginosa 262-101856): >128 µg/mL | MICcompound 1 (P. aeruginosa; P. aeruginosa 264-105354): >128 µg/mL | MICcompound 1 (P. aeruginosa; P. aeruginosa 101243 (colistin-resistant)): >128 µg/mL | MICcompound 1 (P. aeruginosa; P. aeruginosa 114228 (colistin-resistant)): >128 µg/mL | MICcompound 1 (P. aeruginosa; P. aeruginosa PAO1, 0% FBS): >128 µg/mL | MICcompound 1 (P. aeruginosa; P. aeruginosa PAO1, 10% FBS (heat-inactivated)): >128 µg/mL | MICcompound 1 (P. aeruginosa; P. aeruginosa PAO1, 25% FBS): >128 µg/mL | MICcompound 1 (P. aeruginosa; P. aeruginosa PAO1, 50% FBS): >128 µg/mL | MICcompound 1 (P. aeruginosa; P. aeruginosa PAO1, [Mg2+] 25 mM): >128 µg/mL | MICcompound 1 (P. aeruginosa; P. aeruginosa PAO1, [Mg2+] 0.4–0.5 mM (CAMHB)): >128 µg/mL | MICcompound (P. aeruginosa; P. aeruginosa PAO1, compound alone): >128 µg/mL
SMILES: CCCCCCCC(=O)N[C@@H](CN)C(=O)N[C@H](C(=O)N[C@@H](CN)C(=O)N[C@H]1CCNC(=O)[C@H]([C@@H](C)O)NC(=O)[C@H](CN)NC(=O)[C@H](CN)NC(=O)[C@H](CC(C)C)NC(=O)[C@@H](Cc2ccccc2)NC(=O)[C@H](CN)NC1=O)[C@@H](C)O [Compound 1] (Octanoyl-[Dap]T[Dap][Dab][Dap][dF]L[Dap][Dap]T; lactam 4-C)
time-kill outcome (A. baumannii AB027): growth curves similar to that of untreated bacteria | time-kill outcome (P. aeruginosa 259-96916): decrease in growth up to 4 h, with regrowth occurring at 8 h
